Key:
Experiment in all cases: Post-emergence test, weed control effect
Assay type in all cases: in vivo
Conditions in all cases: after 3 weeks
Amaranthus retroflexus = system: Amaranthus retroflexus
In short: (§1)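 Greenhouse pots, soil-sown, 0.5-2 cm cover; foliar spray at 2-3 leaf stage (2-3 wk post-sowing); cpd in acetone + Tween-80, water-diluted, + 80% veg. oil methyl ester synergist 1500 g/ha; 3 wk culture; fresh-wt inhibition graded 0-10.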

Veronica polita = system: Veronica polita
In short: as §1

Chenopodiaceae = system: Chenopodiaceae
In short: as §1

Rorippa indica = system: Rorippa indica
In short: as §1

COc1ncccc1-c1nnc(C(F)(F)F)cc1O [Compound 227]
10: weed control effect (activity level), Amaranthus retroflexus (Amaranthus retroflexus; dose 2000 g/ha) | weed control effect (activity level), Veronica polita (Veronica polita; dose 2000 g/ha) | weed control effect (activity level), Chenopodiaceae (Chenopodiaceae; dose 2000 g/ha) | weed control effect (activity level), Rorippa indica (Rorippa indica; dose 2000 g/ha)

C#Cc1cc(OC2CC2)ncc1-c1nnc(C(F)(F)F)cc1O [Compound 231]
10: weed control effect (activity level), Amaranthus retroflexus (Amaranthus retroflexus; dose 2000 g/ha) | weed control effect (activity level), Veronica polita (Veronica polita; dose 2000 g/ha) | weed control effect (activity level), Chenopodiaceae (Chenopodiaceae; dose 2000 g/ha) | weed control effect (activity level), Rorippa indica (Rorippa indica; dose 2000 g/ha)

CCSc1ccc(-c2nnc(C(F)(F)F)cc2O)cn1 [Compound 236]
10: weed control effect (activity level), Amaranthus retroflexus (Amaranthus retroflexus; dose 2000 g/ha) | weed control effect (activity level), Veronica polita (Veronica polita; dose 2000 g/ha) | weed control effect (activity level), Chenopodiaceae (Chenopodiaceae; dose 2000 g/ha) | weed control effect (activity level), Rorippa indica (Rorippa indica; dose 2000 g/ha)

Oc1cc(C(F)(F)F)nnc1-c1ccccn1 [Compound 263]
10: weed control effect (activity level), Amaranthus retroflexus (Amaranthus retroflexus; dose 2000 g/ha) | weed control effect (activity level), Veronica polita (Veronica polita; dose 2000 g/ha) | weed control effect (activity level), Chenopodiaceae (Chenopodiaceae; dose 2000 g/ha) | weed control effect (activity level), Rorippa indica (Rorippa indica; dose 2000 g/ha)

Oc1cc(C(F)(F)F)nnc1-c1ccncc1Cl [Compound 279]
10: weed control effect (activity level), Amaranthus retroflexus (Amaranthus retroflexus; dose 2000 g/ha) | weed control effect (activity level), Veronica polita (Veronica polita; dose 2000 g/ha) | weed control effect (activity level), Chenopodiaceae (Chenopodiaceae; dose 2000 g/ha) | weed control effect (activity level), Rorippa indica (Rorippa indica; dose 2000 g/ha)

CC(C)OC(=O)Nc1ccc(-c2nnc(C(F)(F)F)cc2O)cn1 [Compound 323]
10: weed control effect (activity level), Amaranthus retroflexus (Amaranthus retroflexus; dose 2000 g/ha) | weed control effect (activity level), Veronica polita (Veronica polita; dose 2000 g/ha) | weed control effect (activity level), Chenopodiaceae (Chenopodiaceae; dose 2000 g/ha) | weed control effect (activity level), Rorippa indica (Rorippa indica; dose 2000 g/ha)

C#Cc1ccc(-c2nnc(C(F)(F)F)cc2O)nn1 [Compound 349]
10: weed control effect (activity level), Amaranthus retroflexus (Amaranthus retroflexus; dose 2000 g/ha) | weed control effect (activity level), Veronica polita (Veronica polita; dose 2000 g/ha) | weed control effect (activity level), Chenopodiaceae (Chenopodiaceae; dose 2000 g/ha) | weed control effect (activity level), Rorippa indica (Rorippa indica; dose 2000 g/ha)

Oc1cc(C(F)(F)F)nnc1-c1ccc2ccccc2c1 [Compound 370]
10: weed control effect (activity level), Amaranthus retroflexus (Amaranthus retroflexus; dose 2000 g/ha) | weed control effect (activity level), Veronica polita (Veronica polita; dose 2000 g/ha) | weed control effect (activity level), Chenopodiaceae (Chenopodiaceae; dose 2000 g/ha) | weed control effect (activity level), Rorippa indica (Rorippa indica; dose 2000 g/ha)

Oc1cc(C(F)(F)F)nnc1-c1ccc2cc(Cl)ccc2c1 [Compound 371]
10: weed control effect (activity level), Amaranthus retroflexus (Amaranthus retroflexus; dose 2000 g/ha) | weed control effect (activity level), Veronica polita (Veronica polita; dose 2000 g/ha) | weed control effect (activity level), Chenopodiaceae (Chenopodiaceae; dose 2000 g/ha) | weed control effect (activity level), Rorippa indica (Rorippa indica; dose 2000 g/ha)

Oc1cc(C(F)(F)F)nnc1-c1cccc2ccccc12 [Compound 380]
10: weed control effect (activity level), Amaranthus retroflexus (Amaranthus retroflexus; dose 2000 g/ha) | weed control effect (activity level), Veronica polita (Veronica polita; dose 2000 g/ha) | weed control effect (activity level), Chenopodiaceae (Chenopodiaceae; dose 2000 g/ha) | weed control effect (activity level), Rorippa indica (Rorippa indica; dose 2000 g/ha)

Cc1ccc(-c2nnc(C(F)(F)F)cc2O)o1 [Compound 414]
10: weed control effect (activity level), Amaranthus retroflexus (Amaranthus retroflexus; Dose 3000 g/ha) | weed control effect (activity level), Veronica polita (Veronica polita; Dose 3000 g/ha) | weed control effect (activity level), Chenopodiaceae (Chenopodiaceae; Dose 3000 g/ha) | weed control effect (activity level), Rorippa indica (Rorippa indica; Dose 3000 g/ha)

Oc1cc(C(F)(F)F)nnc1-c1cc(C(F)(F)F)co1 [Compound 418]
10: weed control effect (activity level), Amaranthus retroflexus (Amaranthus retroflexus; Dose 3000 g/ha) | weed control effect (activity level), Veronica polita (Veronica polita; Dose 3000 g/ha) | weed control effect (activity level), Chenopodiaceae (Chenopodiaceae; Dose 3000 g/ha) | weed control effect (activity level), Rorippa indica (Rorippa indica; Dose 3000 g/ha)

Cc1cc(C)c(-c2nnc(C(F)(F)F)cc2O)o1 [Compound 439]
10: weed control effect (activity level), Amaranthus retroflexus (Amaranthus retroflexus; Dose 3000 g/ha) | weed control effect (activity level), Veronica polita (Veronica polita; Dose 3000 g/ha) | weed control effect (activity level), Chenopodiaceae (Chenopodiaceae; Dose 3000 g/ha) | weed control effect (activity level), Rorippa indica (Rorippa indica; Dose 3000 g/ha)

Cc1cc(-c2nnc(C(F)(F)F)cc2O)nn1C [Compound 540]
10: weed control effect (activity level), Amaranthus retroflexus (Amaranthus retroflexus; Dose 3000 g/ha) | weed control effect (activity level), Veronica polita (Veronica polita; Dose 3000 g/ha) | weed control effect (activity level), Chenopodiaceae (Chenopodiaceae; Dose 3000 g/ha) | weed control effect (activity level), Rorippa indica (Rorippa indica; Dose 3000 g/ha)

Cc1n[nH]c(C)c1-c1nnc(C(F)(F)F)cc1O [Compound 543]
10: weed control effect (activity level), Amaranthus retroflexus (Amaranthus retroflexus; Dose 3000 g/ha) | weed control effect (activity level), Veronica polita (Veronica polita; Dose 3000 g/ha) | weed control effect (activity level), Chenopodiaceae (Chenopodiaceae; Dose 3000 g/ha) | weed control effect (activity level), Rorippa indica (Rorippa indica; Dose 3000 g/ha)

Cc1[nH]nc(-c2nnc(C(F)(F)F)cc2O)c1C [Compound 544]
10: weed control effect (activity level), Amaranthus retroflexus (Amaranthus retroflexus; Dose 3000 g/ha) | weed control effect (activity level), Veronica polita (Veronica polita; Dose 3000 g/ha) | weed control effect (activity level), Chenopodiaceae (Chenopodiaceae; Dose 3000 g/ha) | weed control effect (activity level), Rorippa indica (Rorippa indica; Dose 3000 g/ha)

CCCn1cc(-c2nnc(C(F)(F)F)cc2O)cn1 [Compound 546]
10: weed control effect (activity level), Amaranthus retroflexus (Amaranthus retroflexus; Dose 3000 g/ha) | weed control effect (activity level), Veronica polita (Veronica polita; Dose 3000 g/ha) | weed control effect (activity level), Chenopodiaceae (Chenopodiaceae; Dose 3000 g/ha) | weed control effect (activity level), Rorippa indica (Rorippa indica; Dose 3000 g/ha)

Oc1cc(C(F)(F)F)nnc1-c1cn2ncccc2n1 [Compound 570]
10: weed control effect (activity level), Amaranthus retroflexus (Amaranthus retroflexus; Dose 3000 g/ha) | weed control effect (activity level), Veronica polita (Veronica polita; Dose 3000 g/ha) | weed control effect (activity level), Chenopodiaceae (Chenopodiaceae; Dose 3000 g/ha) | weed control effect (activity level), Rorippa indica (Rorippa indica; Dose 3000 g/ha)

Oc1cc(C(F)(F)F)nnc1-c1ccc2cc[nH]c2c1 [Compound 588]
10: weed control effect (activity level), Amaranthus retroflexus (Amaranthus retroflexus; Dose 3000 g/ha) | weed control effect (activity level), Veronica polita (Veronica polita; Dose 3000 g/ha) | weed control effect (activity level), Chenopodiaceae (Chenopodiaceae; Dose 3000 g/ha) | weed control effect (activity level), Rorippa indica (Rorippa indica; Dose 3000 g/ha)

Oc1cc(C(F)(F)F)nnc1-c1cccc2cc[nH]c12 [Compound 589]
10: weed control effect (activity level), Amaranthus retroflexus (Amaranthus retroflexus; Dose 3000 g/ha) | weed control effect (activity level), Veronica polita (Veronica polita; Dose 3000 g/ha) | weed control effect (activity level), Chenopodiaceae (Chenopodiaceae; Dose 3000 g/ha) | weed control effect (activity level), Rorippa indica (Rorippa indica; Dose 3000 g/ha)

Oc1cc(C(F)(F)F)nnc1-c1cc2ccccc2s1 [Compound 594]
10: weed control effect (activity level), Amaranthus retroflexus (Amaranthus retroflexus; Dose 3000 g/ha) | weed control effect (activity level), Veronica polita (Veronica polita; Dose 3000 g/ha) | weed control effect (activity level), Chenopodiaceae (Chenopodiaceae; Dose 3000 g/ha) | weed control effect (activity level), Rorippa indica (Rorippa indica; Dose 3000 g/ha)

Oc1cc(C(F)(F)F)nnc1-c1ccc2occc2c1 [Compound 595]
10: weed control effect (activity level), Amaranthus retroflexus (Amaranthus retroflexus; Dose 3000 g/ha) | weed control effect (activity level), Veronica polita (Veronica polita; Dose 3000 g/ha) | weed control effect (activity level), Chenopodiaceae (Chenopodiaceae; Dose 3000 g/ha) | weed control effect (activity level), Rorippa indica (Rorippa indica; Dose 3000 g/ha)

Cc1nc2cc(-c3nnc(C(F)(F)F)cc3O)ccc2o1 [Compound 597]
10: weed control effect (activity level), Amaranthus retroflexus (Amaranthus retroflexus; Dose 3000 g/ha) | weed control effect (activity level), Veronica polita (Veronica polita; Dose 3000 g/ha) | weed control effect (activity level), Chenopodiaceae (Chenopodiaceae; Dose 3000 g/ha) | weed control effect (activity level), Rorippa indica (Rorippa indica; Dose 3000 g/ha)

Oc1cc(C(F)(F)F)nnc1-c1cc2ccccc2o1 [Compound 613]
10: weed control effect (activity level), Amaranthus retroflexus (Amaranthus retroflexus; Dose 3000 g/ha) | weed control effect (activity level), Veronica polita (Veronica polita; Dose 3000 g/ha) | weed control effect (activity level), Chenopodiaceae (Chenopodiaceae; Dose 3000 g/ha) | weed control effect (activity level), Rorippa indica (Rorippa indica; Dose 3000 g/ha)

Oc1cc(C(F)(F)F)nnc1-c1ccc2cnccc2c1 [Compound 634]
10: weed control effect (activity level), Amaranthus retroflexus (Amaranthus retroflexus; Dose 3000 g/ha) | weed control effect (activity level), Veronica polita (Veronica polita; Dose 3000 g/ha) | weed control effect (activity level), Chenopodiaceae (Chenopodiaceae; Dose 3000 g/ha) | weed control effect (activity level), Rorippa indica (Rorippa indica; Dose 3000 g/ha)

Oc1cc(C(F)(F)F)nnc1-c1cccc2cnccc12 [Compound 636]
10: weed control effect (activity level), Amaranthus retroflexus (Amaranthus retroflexus; Dose 3000 g/ha) | weed control effect (activity level), Veronica polita (Veronica polita; Dose 3000 g/ha) | weed control effect (activity level), Chenopodiaceae (Chenopodiaceae; Dose 3000 g/ha) | weed control effect (activity level), Rorippa indica (Rorippa indica; Dose 3000 g/ha)

Oc1cc(C(F)(F)F)nnc1-c1cncc2ccccc12 [Compound 637]
10: weed control effect (activity level), Amaranthus retroflexus (Amaranthus retroflexus; Dose 3000 g/ha) | weed control effect (activity level), Veronica polita (Veronica polita; Dose 3000 g/ha) | weed control effect (activity level), Chenopodiaceae (Chenopodiaceae; Dose 3000 g/ha) | weed control effect (activity level), Rorippa indica (Rorippa indica; Dose 3000 g/ha)

Oc1cc(C(F)(F)F)nnc1-c1ccc2ncccc2c1 [Compound 714]
10: weed control effect (activity level), Amaranthus retroflexus (Amaranthus retroflexus; Dose 3000 g/ha) | weed control effect (activity level), Veronica polita (Veronica polita; Dose 3000 g/ha) | weed control effect (activity level), Chenopodiaceae (Chenopodiaceae; Dose 3000 g/ha) | weed control effect (activity level), Rorippa indica (Rorippa indica; Dose 3000 g/ha)
